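Method: 48-hour compound exposure of cells in 96-well plates, five concentrations, linear interpolation of endpoints. GI50 marks 50% less growth. At the TGI there is no net growth.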
Assays:
Assay in all cases: DTP human tumour cell line panel, 48 h
LOX IMVI melanoma = tested on: LOX IMVI melanoma
HT29 colon = tested on: HT29 colon
XF 498 CNS = tested on: XF 498 CNS
M14 melanoma = tested on: M14 melanoma
K-562 leukemia = tested on: K-562 leukemia
IGROV1 ovarian = tested on: IGROV1 ovarian
NCI-H226 lung = tested on: NCI-H226 lung
SNB-75 CNS = tested on: SNB-75 CNS
RXF-631 renal = tested on: RXF-631 renal
HL-60(TB) leukemia = tested on: HL-60(TB) leukemia
LXFL 529 NSCLC = tested on: LXFL 529 NSCLC
SR leukemia = tested on: SR leukemia
U251 CNS = tested on: U251 CNS
SK-MEL-28 melanoma = tested on: SK-MEL-28 melanoma
A549 NSCLC = tested on: A549 NSCLC
SK-OV-3 ovarian = tested on: SK-OV-3 ovarian
SF-268 CNS = tested on: SF-268 CNS
HCT-15 colon = tested on: HCT-15 colon
SF-295 CNS = tested on: SF-295 CNS
UACC-257 melanoma = tested on: UACC-257 melanoma
SF-539 CNS = tested on: SF-539 CNS
SNB-19 CNS = tested on: SNB-19 CNS
UACC-62 melanoma = tested on: UACC-62 melanoma
HOP-18 NSCLC = tested on: HOP-18 NSCLC
MALME-3M melanoma = tested on: MALME-3M melanoma
NCI-H460 lung = tested on: NCI-H460 lung
HCT-116 colon = tested on: HCT-116 colon
CCRF-CEM leukemia = tested on: CCRF-CEM leukemia
SK-MEL-5 melanoma = tested on: SK-MEL-5 melanoma
MOLT-4 leukemia = tested on: MOLT-4 leukemia
SNB-78 CNS = tested on: SNB-78 CNS
HCC-2998 colon = tested on: HCC-2998 colon
EKVX NSCLC = tested on: EKVX NSCLC
SW-620 colon = tested on: SW-620 colon
COLO 205 colon = tested on: COLO 205 colon
RPMI-8226 leukemia = tested on: RPMI-8226 leukemia
DMS 114 small cell lung = tested on: DMS 114 small cell lung
SK-MEL-2 melanoma = tested on: SK-MEL-2 melanoma
DLD-1 colon = tested on: DLD-1 colon
NCI-H522 lung = tested on: NCI-H522 lung
OVCAR-5 ovarian = tested on: OVCAR-5 ovarian
OVCAR-8 ovarian = tested on: OVCAR-8 ovarian
M19-MEL melanoma = tested on: M19-MEL melanoma
UO-31 renal = tested on: UO-31 renal
OVCAR-4 ovarian = tested on: OVCAR-4 ovarian
HOP-62 NSCLC = tested on: HOP-62 NSCLC
OVCAR-3 ovarian = tested on: OVCAR-3 ovarian
TK-10 renal = tested on: TK-10 renal
ACHN renal = tested on: ACHN renal
786-0 renal = tested on: 786-0 renal
NCI-H23 lung = tested on: NCI-H23 lung
CAKI-1 renal = tested on: CAKI-1 renal
KM20L2 colon = tested on: KM20L2 colon
KM12 colon = tested on: KM12 colon

**Q.** What does the source list for `CC[O-].CC[O-].CN(C)c1ccc([O-])cc1.CN(C)c1ccc([O-])cc1.[Ti+4]`?
**A.** GI50 (LOX IMVI melanoma): 38.6 µM; TGI (LOX IMVI melanoma): > 100 µM; GI50 (HT29 colon): 21.3 µM; TGI (HT29 colon): 49.5 µM; GI50 (XF 498 CNS): > 100 µM; TGI (XF 498 CNS): > 100 µM; GI50 (M14 melanoma): 98.4 µM; TGI (M14 melanoma): > 100 µM; GI50 (K-562 leukemia): 29.1 µM; TGI (K-562 leukemia): > 100 µM; GI50 (IGROV1 ovarian): > 100 µM; TGI (IGROV1 ovarian): > 100 µM; GI50 (NCI-H226 lung): > 100 µM; TGI (NCI-H226 lung): > 100 µM; GI50 (SNB-75 CNS): > 100 µM; TGI (SNB-75 CNS): > 100 µM; GI50 (RXF-631 renal): 66.1 µM; TGI (RXF-631 renal): > 100 µM; GI50 (HL-60(TB) leukemia): 46.4 µM; TGI (HL-60(TB) leukemia): > 100 µM; GI50 (LXFL 529 NSCLC): 68.2 µM; TGI (LXFL 529 NSCLC): > 100 µM; GI50 (SR leukemia): 72.2 µM; TGI (SR leukemia): > 100 µM; GI50 (U251 CNS): 39 µM; TGI (U251 CNS): > 100 µM; GI50 (SK-MEL-28 melanoma): > 100 µM; TGI (SK-MEL-28 melanoma): > 100 µM; GI50 (A549 NSCLC): 54.4 µM; TGI (A549 NSCLC): > 100 µM; GI50 (SK-OV-3 ovarian): > 100 µM; TGI (SK-OV-3 ovarian): > 100 µM; GI50 (SF-268 CNS): 36.4 µM; TGI (SF-268 CNS): > 100 µM; GI50 (HCT-15 colon): 61.4 µM; TGI (HCT-15 colon): > 100 µM; GI50 (SF-295 CNS): 48.7 µM; TGI (SF-295 CNS): > 100 µM; GI50 (UACC-257 melanoma): 28.7 µM; TGI (UACC-257 melanoma): > 100 µM; GI50 (SF-539 CNS): 30.8 µM; TGI (SF-539 CNS): > 100 µM; GI50 (SNB-19 CNS): > 100 µM; TGI (SNB-19 CNS): > 100 µM; GI50 (UACC-62 melanoma): > 100 µM; TGI (UACC-62 melanoma): > 100 µM; GI50 (HOP-18 NSCLC): > 100 µM; TGI (HOP-18 NSCLC): > 100 µM; GI50 (MALME-3M melanoma): 82.9 µM; TGI (MALME-3M melanoma): > 100 µM; GI50 (NCI-H460 lung): 27.7 µM; TGI (NCI-H460 lung): 75 µM; GI50 (HCT-116 colon): 52.5 µM; TGI (HCT-116 colon): > 100 µM; GI50 (CCRF-CEM leukemia): 36.4 µM; TGI (CCRF-CEM leukemia): > 100 µM; GI50 (SK-MEL-5 melanoma): 99.8 µM; TGI (SK-MEL-5 melanoma): > 100 µM; GI50 (MOLT-4 leukemia): 32.4 µM; TGI (MOLT-4 leukemia): > 100 µM; GI50 (SNB-78 CNS): > 100 µM; TGI (SNB-78 CNS): > 100 µM; GI50 (HCC-2998 colon): 53.6 µM; TGI (HCC-2998 colon): > 100 µM; GI50 (EKVX NSCLC): > 100 µM; TGI (EKVX NSCLC): > 100 µM; GI50 (SW-620 colon): 70.5 µM; TGI (SW-620 colon): > 100 µM; GI50 (COLO 205 colon): 58.4 µM; TGI (COLO 205 colon): > 100 µM; GI50 (RPMI-8226 leukemia): 95.7 µM; TGI (RPMI-8226 leukemia): > 100 µM; GI50 (DMS 114 small cell lung): 35 µM; TGI (DMS 114 small cell lung): > 100 µM; GI50 (SK-MEL-2 melanoma): > 100 µM; TGI (SK-MEL-2 melanoma): > 100 µM; GI50 (DLD-1 colon): 61.4 µM; TGI (DLD-1 colon): > 100 µM; GI50 (NCI-H522 lung): 52.3 µM; TGI (NCI-H522 lung): > 100 µM; GI50 (OVCAR-5 ovarian): > 100 µM; TGI (OVCAR-5 ovarian): > 100 µM; GI50 (OVCAR-8 ovarian): 36.8 µM; TGI (OVCAR-8 ovarian): > 100 µM; GI50 (M19-MEL melanoma): 39.3 µM; TGI (M19-MEL melanoma): > 100 µM; GI50 (UO-31 renal): > 100 µM; TGI (UO-31 renal): > 100 µM; GI50 (OVCAR-4 ovarian): > 100 µM; TGI (OVCAR-4 ovarian): > 100 µM; GI50 (HOP-62 NSCLC): > 100 µM; TGI (HOP-62 NSCLC): > 100 µM; GI50 (OVCAR-3 ovarian): 56.1 µM; TGI (OVCAR-3 ovarian): > 100 µM; GI50 (TK-10 renal): > 100 µM; TGI (TK-10 renal): > 100 µM; GI50 (ACHN renal): 40.9 µM; TGI (ACHN renal): > 100 µM; GI50 (786-0 renal): 32 µM; TGI (786-0 renal): > 100 µM; GI50 (NCI-H23 lung): 70.6 µM; TGI (NCI-H23 lung): > 100 µM; GI50 (CAKI-1 renal): > 100 µM; TGI (CAKI-1 renal): > 100 µM; GI50 (KM20L2 colon): 61.7 µM; TGI (KM20L2 colon): > 100 µM; GI50 (KM12 colon): 29.3 µM; TGI (KM12 colon): > 100 µM

From PubChem BioAssay (NCI)
